According to patent US20230321055A1, “PREVENTIVE TREATMENT OF MIGRAINE” (priority 2022, published 2023):

Assays:
[1] = test system: participants with chronic migraine; assay: Same phase 3 study: safety and tolerability (adverse events, hepatic laboratory values), safety population; format: in vivo, human
Procedure: A phase 3, multicenter, randomized, double-blind, placebo-controlled, parallel-group study was carried out to evaluate the efficacy, safety, and tolerability of atogepant for the prevention of chronic migraine. A total of 778 participants from 133 sites in North America, Europe, and East Asia were randomized to one of three treatment arms (placebo, Atogepant 30 mg BID, and Atogepant 60 mg QD) in a 1:1:1 ratio.
This study comprised a 4-week screening and baseline period, a 12-week double blind treatment period, and a follow-up period of 4 additional weeks. The total study duration was 20 weeks. Participant disposition information and other relevant participant screening information may also be found in FIG. 19.
The overall safety profile of the study was consistent with safety findings observed in previous studies of atogepant in an episodic migraine population. […] For the safety population, the mean treatment duration for atogepant 30 mg BID, atogepant 60 mg QD, and placebo group were 80.1 days, 79.7 days, and 80.3 days, respectively. Serious adverse events occurred in 2.7% of patients treated with atogepant 60 mg QD and 1.6% of patients treated with atogepant 30 mg BID, compared to 1.2% of patients with placebo.
Table 11 presents the number and percentage of participants with post-baseline hepatic-related laboratory parameter values of clinical interest. There were five participants who had post-baseline ALT or AST elevations (≥3*ULN), with 1/254 (0.4%), 2/255 (0.8%), and 2/257 (0.8%) in the placebo, atogepant 30 mg BID, and atogepant 60 mg QD groups, respectively. All cases in the atogepant dose groups were adjudicated as unlikely to be related to study drug. No participants met potential Hy's law criteria.

[2] = test system: participants with CM and moderate to severe symptoms of depression; assay: Same phase 3 study: analysis of participants with chronic migraine and moderate to severe symptoms of depression (PHQ-9 ≥10); format: in vivo, human; design: MSQ v2.1 RFR, Change from baseline, mean / MSQ v2.1 RFP, Change from baseline, mean / MSQ v2.1 EF, Change from baseline, mean / MSQ v2.1 RFR, MMRM, LS mean change / MSQ v2.1 RFP, MMRM, LS mean change / MSQ v2.1 EF, MMRM, LS mean change / HIT-6, Change from baseline, mean / HIT-6, MMRM, LS mean change: scale not given here; conditions: 60 mg QD
Source text: Depression is a common comorbidity in people with migraine and is a risk factor for transformation of EM to CM. Depressive symptoms predict increases in headache-related disability and poor health-related quality of life (HRQoL) in people with migraine. Thus, trial data analysis was used to evaluate the effect of atogepant in participants with CM and baseline symptoms of moderate to severe depression. Specifically, analysis of trial data evaluated the impact of atogepant on change in monthly migraine days, ≥50% and ≥75% responder rates, change in MSQ v2.1 domain scores, and PGIC in participants with CM and moderate to severe depression symptomology. PHQ-9 is a validated, screening and diagnostic tool designed to improve the recognition rate of depression and facilitates diagnosis and treatment. A cut-off score of ≥10 was used to identify participants with moderate or severe depressive symptoms, to determine eligibility and as a continuous outcome to measure changes in depression. As disclosed hereinabove, the MSQ v2.1 is a 14-item measure of health-related quality of life evaluating impacts attributed to migraine over the past 4 weeks and comprises three domains: Role Function-Restrictive (RFR), Role Function-Preventive (RFP), and Emotional Function (EF). PGIC is a single item used to measure the subject's impression of overall change in migraine since the first dose of study intervention. Findings for the atogepant 60 mg QD dose are presented herein. […] For the endpoint change from baseline in monthly migraine days and each MSQ v2.1 domain score, the comparison between treatment groups was analyzed using a restricted maximum likelihood-based mixed model for repeated measures (MMRM). Logistic regression models were used to analyze PGIC responder at week 12 and ≥50% or 75% responder rates across 12-week double-blind treatment period. ANCOVA model was used to analyze change from baseline in PHQ-9 score at week 12.
Analysis of trial data evaluated the impact of atogepant on headache day reduction, moderate/severe headache days, acute medication use day reduction, impacts of headache and migraine as evaluated by the HIT-6 and AIM-D, and symptoms of moderate to severe depression as measured by PHQ-9. A cut-off score of ≥10 was used to identify participants with moderate or severe depressive symptoms, to determine eligibility and as a continuous outcome to measure changes in depressive symptoms. Findings for the atogepant 60 mg QD dose are presented here. Similar results for the 30 BID dose (excluded for simplicity). For endpoints other than PHQ-9, the comparison between treatment groups were analyzed using a restricted maximum likelihood-based mixed model for repeated measures (MMRM). ANCOVA model was used to analyze PHQ-9 related endpoints.

[3] = 30 mg BID, safety population (N = 257)
[4] = 60 mg QD, safety population (N = 261)
[5] = across the 12-week treatment period, mITT, PHQ-9 ≥10 subgroup (n = 109)
[6] = mITT, PHQ-9 ≥10 subgroup (n = 109)
[7] = mITT, PHQ-9 ≥10 subgroup (n = 109), 12-week treatment period
[8] = week 12, mITT, PHQ-9 ≥10 subgroup (n = 109)

Q: Which results are given for `C[C@@H]1[C@H](c2c(F)ccc(F)c2F)C[C@H](NC(=O)c2cnc3c(c2)C[C@@]2(C3)C(=O)Nc3ncccc32)C(=O)N1CC(F)(F)F` [Atogepant, (S)—N—((3S,5S,6R)-6-methyl-2-oxo-1-(2,2,2-trifluoroethyl)-5-(2,3,6-trifluorophenyl)piperidin-3-yl)-2′-oxo-1′,2′,5,7-tetrahydrospiro[cyclopenta[b]pyridine-6,3′-pyrrolo[2,3-b]pyridine]-3-carboxamide]?
A: Deaths [1, 3]: 0 n (%); TEAE leading to treatment discontinuation [1, 3]: 13 (5.1) n (%); TEAEs, participants [1, 3]: 145 (56.4) n (%); TESAE Anal abscess [1, 3]: 1 (0.4) n (%); TESAE Benign ovarian tumour [1, 3]: 1 (0.4) n (%); TESAE COVID-19 [1, 3]: 0 n (%); TESAE COVID-19 pneumonia [1, 3]: 1 (0.4) n (%); TESAE Cholelithiasis [1, 3]: 0 n (%); TESAE Epicondylitis [1, 3]: 0 n (%); TESAE Fall [1, 3]: 0 n (%); TESAE Hip fracture [1, 3]: 0 n (%); TESAE Nasal septum deviation [1, 3]: 0 n (%); TESAE Plasma cell myeloma [1, 3]: 0 n (%); Deaths [1, 4]: 0 n (%); TESAE COVID-19 [1, 4]: 1 (0.4) n (%); TESAE COVID-19 pneumonia [1, 4]: 0 n (%); serious adverse events considered related to study treatment by the investigator ([1]; in vivo): None; AIM-D PDA, Change from baseline, mean [2, 5]: −16.09; AIM-D PDA, LSMD vs placebo [2, 5]: −5.91; AIM-D PDA, MMRM, LS mean change [2, 5]: −13.50; AIM-D PI, Change from baseline, mean [2, 5]: −13.84; AIM-D PI, LSMD vs placebo [2, 5]: −4.63; AIM-D PI, MMRM, LS mean change [2, 5]: −11.68; AIM-D PDA, Months 1-3, mean [2, 6]: 22.29; AIM-D PI, Months 1-3, mean [2, 6]: 20.07; Monthly Acute Medication Use Days, Post-baseline (Month 1-3), mean [2, 6]: 9.51; Monthly Headache Days, Post-baseline (Month 1-3), mean [2, 6]: 15.24; Monthly Migraine Days, Post-baseline (Month 1-3), mean [2, 6]: 12.90; Monthly Moderate/Severe Headache Days, Post-baseline (Month 1-3), mean [2, 6]: 10.22; PHQ-9, Week 12, mean [2, 6]: 8.81; ≥50% Responders, Odds ratio vs placebo [2, 6]: 3.70; ≥75% Responders, Odds ratio vs placebo [2, 6]: 13.64; Monthly Acute Medication Use Days, Change from baseline, mean [2, 7]: −7.52; Monthly Acute Medication Use Days, LSMD vs placebo [2, 7]: −3.53; Monthly Acute Medication Use Days, MMRM, LS mean change [2, 7]: −6.57; Monthly Headache Days, Change from baseline, mean [2, 7]: −6.94; Monthly Headache Days, LSMD vs placebo [2, 7]: −2.86; Monthly Headache Days, MMRM, LS mean change [2, 7]: −6.52; Monthly Migraine Days, Change from baseline, mean [2, 7]: −7.23; Monthly Migraine Days, LSMD vs placebo [2, 7]: −3.04; Monthly Migraine Days, MMRM, LS mean change [2, 7]: −6.71; Monthly Moderate/Severe Headache Days, Change from baseline, mean [2, 7]: −7.34; Monthly Moderate/Severe Headache Days, LSMD vs placebo [2, 7]: −2.68; Monthly Moderate/Severe Headache Days, MMRM, LS mean change [2, 7]: −6.77; ≥50% Responders, Odds ratio vs placebo ([2]; mITT, PHQ-9 ≥10 subgroup (n = 109), listed as atogepant): 3.7; PGIC much better or very much better, OR vs placebo ([2]; week 12, PHQ-9 ≥10 subgroup): 2.52; HIT-6, Change from baseline, mean [2, 8]: −8.73; HIT-6, LSMD vs placebo [2, 8]: −3.18; HIT-6, MMRM, LS mean change [2, 8]: −8.37; HIT-6, Post-baseline, mean [2, 8]: 57.68; MSQ v2.1 EF, Change from baseline, mean [2, 8]: 30.17; MSQ v2.1 EF, LSMD vs placebo [2, 8]: 9.24; MSQ v2.1 EF, MMRM, LS mean change [2, 8]: 28.19; MSQ v2.1 EF, Post-baseline, mean [2, 8]: 70.79; MSQ v2.1 RFP, Change from baseline, mean [2, 8]: 24.95; MSQ v2.1 RFP, LSMD vs placebo [2, 8]: 8.89; MSQ v2.1 RFP, MMRM, LS mean change [2, 8]: 22.91; MSQ v2.1 RFP, Post-baseline, mean [2, 8]: 73.71; MSQ v2.1 RFR, Change from baseline, mean [2, 8]: 28.04; MSQ v2.1 RFR, LSMD vs placebo [2, 8]: 8.77; MSQ v2.1 RFR, MMRM, LS mean change [2, 8]: 25.56; MSQ v2.1 RFR, Post-baseline, mean [2, 8]: 61.53; PHQ-9, ANCOVA, LS mean change [2, 8]: −5.11; PHQ-9, Change from baseline, mean [2, 8]: −5.61; PHQ-9, LSMD vs placebo [2, 8]: −1.38
